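The compound was tested at five concentrations on cells cultured in 96-well plates, with a 48-hour exposure period. Abbreviation: GI50, concentration required for 50% inhibition of growth. TGI marks complete inhibition of growth.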
Tests used:
Assay in all cases: NCI-60 cell line screen, 48 h
[1] = tested on: SF-268 CNS
[2] = tested on: SK-MEL-2 melanoma
[3] = tested on: SN12C renal
[4] = tested on: OVCAR-3 ovarian
[5] = tested on: MCF7 breast
[6] = tested on: SF-295 CNS

| SMILES | GI50 [1] [nM] | TGI [1] [µM] | GI50 [2] [nM] | TGI [2] [µM] | GI50 [3] [µM] | TGI [3] [µM] | GI50 [4] [nM] | TGI [4] [µM] | GI50 [5] [nM] | TGI [5] [µM] | GI50 [6] [nM] | TGI [6] [µM] |
| --- | --- | --- | --- | --- | --- | --- | --- | --- | --- | --- | --- | --- |
| CCN(CC)c1ccc2nc3ccc(N=Nc4ccc(O)cc4)cc3[n+](-c3ccccc3)c2c1 | 5000 | > 100 | 2650 | > 100 | 10.7 | 36.7 | 359 | 4.02 | 1900 | 5.11 | 2860 | > 100 |
| CN1CCN(CCCOc2cccc3nc(Nc4ccc(F)c(F)c4)ccc23)CC1 | 4460 | 9.74 | 3950 | 8.62 | 4.87 | 9.93 | 4580 | 9.51 | 3330 | 7.88 | 4640 | 9.3 |
| CCc1nc2cc(/C=C/C(=O)NO)ccc2c(=O)n1CCc1ccc(OC)cc1 | 2440 | 13.1 | 3660 | 24.9 | – | – | 2030 | 7.19 | 2380 | 17.7 | 2160 | 5.39 |
| CCCCN1C(=O)/C(=c2\sc3n(c2=O)C2C(NN=3)N(CC)C(=O)N2CC)c2ccccc21 (stereo not drawn) | 959 | 4.71 | 1470 | 5.75 | – | – | – | – | – | – | 456 | 2.26 |
| COc1cc(CN(c2ccc(C)cc2)C2OC(=O)c3ccccc32)cc(OC)c1OC (stereo not drawn) | 1970 | > 100 | 487 | > 100 | 0.854 | > 100 | 328 | 13.7 | 339 | > 100 | 322 | > 100 |
| COc1cccc(NC(=O)c2sc3nc4c(cc3c2N)C(O)CCC4)c1 (stereo not drawn) | 496 | > 55 | 249 | > 100 | 0.562 | > 100 | 106 | 0.515 | 52.3 | > 100 | 157 | > 92.2 |
| CC1=C(C#N)C(/C=C(\Cl)c2ccc(F)cc2)C(C#N)=C(C)N1 | > 100000 | > 100 | > 100000 | > 100 | > 100 | > 100 | > 100000 | > 100 | > 100000 | > 100 | 53700 | > 100 |
| OC(COc1ccccc1)CN1CCCCC1 (stereo not drawn) | – | > 100 | – | > 100 | – | > 100 | – | > 100 | – | > 100 | – | > 100 |
| COc1ccc(-c2n[nH]nc2-c2cc(OC)c3c(c2)OCO3)cc1 | 87 | > 62.3 | 18.4 | 20.3 | 0.071 | 55.6 | 10.1 | – | < 10 | > 82.3 | < 10 | 0.429 |
| CC[C@@H](O)C[C@H]1CCC[C@@]2(C[C@@H]3OC(=O)/C=C/[C@@](C)(O)[C@@H](O)[C@H](C)[C@@H](O)[C@H](OC4CCC(N(C)C)C(C)O4)[C@@H](O)[C@](C)(O)CCCCC/C=C/[C@@H]4CC(C)(C)O[C@@]4(O)C[C@H](O2)[C@H]3C)O1 (stereo partly drawn) | – | 35.2 | – | 22.7 | – | 37.1 | – | 25.5 | – | 15.6 | – | 21.6 |
| COc1ccc(-c2nsc3c2NC(=O)CC3c2cccc(Cl)c2)cc1 (stereo not drawn) | 8040 | > 100 | 878 | 9.93 | > 22.8 | > 100 | 1740 | > 29 | 809 | > 100 | 1990 | 13.5 |
| COc1cc(Nc2ncnc(Nc3ccc4c(n3)NC(=O)C(C)(C)O4)n2)cc(OC)c1OC | 544 | > 100 | > 100000 | > 100 | 0.411 | > 100 | 3460 | > 100 | 1320 | > 100 | 754 | > 100 |
| COc1cc(-c2nccc3cc4c(cc23)OCO4)cc(OC)c1OC | 5560 | > 100 | 3080 | > 100 | 7.64 | > 100 | 2090 | 4.72 | 2880 | > 100 | 2030 | 14.2 |
| Cn1cncc1-c1c(F)cncc1NC(=O)c1c(N)nn2cc(F)cnc12 | 4040 | 46.2 | 75.1 | 0.397 | 3.98 | 37.6 | 407 | 2.29 | 51.5 | 56.4 | 625 | 6.61 |
| CC/C(Cc1ccccc1)=C(/c1ccc(O)cc1)c1ccc(OCCN2CCCC2)cc1 | 1610 | 3.35 | 2040 | 3.84 | 1.88 | 3.88 | 1820 | 3.46 | 21.1 | 2.22 | 1810 | 3.46 |
| COc1cc2nc(-c3cccc4cccnc34)nc(NC3CCN(Cc4ccccc4)CC3)c2cc1OC | 1140 | 2.98 | 1680 | 3.53 | 1.11 | 2.58 | 1520 | 3.08 | – | – | 1440 | 3.09 |
| CCN(CC)c1nc(NC2CCCCC2)c2nc(N(CC)CC)nc(NC3CCCCC3)c2n1 | – | > 100 | – | – | – | > 100 | – | > 100 | – | > 100 | – | > 100 |
| Cc1cccc(Nc2cc(Cl)nc(SCC(=O)O)n2)c1C | – | – | – | > 100 | – | > 100 | – | > 100 | – | > 100 | – | > 100 |
| Cc1ccc(O)c(NC2=C(Cl)C(=O)N(Cc3ccccc3)C2=O)c1 | 18800 | 47.1 | 19000 | 39 | 14.9 | 32.7 | 14900 | 32.9 | 16200 | 48.8 | 26200 | 71.2 |
| CCOc1ccc(C(C)=O)cc1NC(=O)c1cccc(-c2nnn(CC)n2)c1 | 901 | > 100 | 440 | 24 | 5.8 | > 100 | 377 | 5.89 | 333 | > 100 | 306 | 5.74 |

| SMILES | GI50 [1] [nM] | TGI [1] [µM] | GI50 [2] [nM] | TGI [2] [µM] | GI50 [3] [µM] | TGI [3] [µM] | GI50 [4] [nM] | TGI [4] [µM] | GI50 [5] [nM] | TGI [5] [µM] | GI50 [6] [nM] | TGI [6] [µM] |
| --- | --- | --- | --- | --- | --- | --- | --- | --- | --- | --- | --- | --- |
| CC12OC(C(=O)C13CCC3)C1C(=O)c3ccc4c(ccc5ccccc54)c3C(=O)C12 (stereo not drawn) | 11600 | 32.9 | 19400 | > 100 | 2.72 | 19.6 | 388 | 2.47 | 5100 | 30.7 | – | 0.0612 |
| COc1ccc2nc3cccc([N+](=O)[O-])c3c(NCCNCCN(C)C)c2c1 | 161 | 0.715 | 30.8 | 0.107 | 0.141 | 0.592 | 99.2 | 0.308 | 19.2 | 0.221 | 62.6 | 0.696 |
| COc1cc(NC(C)CCCNC(C)C)c2ncccc2c1OC (stereo not drawn) | > 100000 | > 100 | – | – | > 100 | > 100 | 6470 | 51 | 29600 | > 100 | > 100000 | > 100 |
| COc1ccc2[nH]c(C(=O)OCc3ccc4cccc(O)c4n3)cc2c1 | 1650 | 3.13 | 1740 | 3.72 | 1.18 | 2.54 | 1110 | 2.41 | 723 | 2.79 | 4980 | 18.1 |
| CCc1nn2ncccc2c1-c1ccnc(NC2CC2)n1 | > 25000 | > 25 | > 25000 | > 25 | > 25 | > 25 | > 25000 | > 25 | > 25000 | > 25 | > 25000 | > 25 |
| CCN(CC)c1ccc(/C=N/NC(=O)CSc2nc3ccccc3c(=O)n2Cc2ccc(S(N)(=O)=O)cc2)c(O)c1 | 766 | > 100 | 2410 | > 100 | 1.93 | > 100 | 287 | > 100 | 457 | > 100 | 1470 | > 100 |
| Nc1ccc(-c2ccc3ncc4ccc(=O)n(-c5cccc(C(F)(F)F)c5)c4c3c2)cn1 | < 10.4 | 4.61 | < 10 | 0.0572 | < 0.0131 | > 52.2 | < 10 | 3.32 | < 10 | 12.8 | < 10 | 1.19 |
| CCn1c(=N)sc2nc3ccccc3n2c1=O | – | > 100 | – | > 100 | – | > 100 | – | > 100 | – | > 100 | – | > 100 |
| S=C(CSc1ccccc1)Nc1cccc2ccccc12 | – | > 100 | – | 74.5 | – | > 100 | – | 88.7 | – | > 100 | – | 97.1 |
| COc1cc(-c2cc3ncccc3c3[nH]c(=O)c4cccnc4c23)cc(OC)c1OC | 2160 | > 100 | 833 | > 100 | 14.3 | > 100 | 329 | > 100 | 394 | > 100 | 379 | 25.4 |
| O=C(O)Cn1ccc2ccccc21 | > 100000 | > 100 | > 100000 | > 100 | > 100 | > 100 | > 100000 | > 100 | > 100000 | > 100 | > 100000 | > 100 |
| COc1ccc2c(c1)O/C(=C\c1cccc(OCC(=O)Nc3nc(C)c(C)s3)c1)C2=O | 638 | 1.4 | 1680 | 3.22 | 2 | > 100 | 448 | 1.05 | 3170 | 50.1 | 28900 | > 100 |
| NCCOc1ncccc1/C=C1\c2ccccc2-c2ccc([N+](=O)[O-])cc21 | 82.7 | 0.619 | 314 | 0.754 | 0.0284 | 0.178 | 181 | 0.449 | < 10.9 | 0.409 | 24.6 | 0.161 |
| Cc1cn2c(/C=N/N=C(N)N)c(-c3ccncc3)nc2s1 | 16700 | 30.7 | 28300 | > 100 | 32.7 | 69.7 | 17500 | 33.6 | – | – | 14300 | 29.2 |
| O=C1Nc2ccccc2/C1=C/c1cn(CC(O)Cn2cc(/C=C3\C(=O)Nc4ccccc43)c3ccccc32)c2ccccc12 (stereo not drawn) | 1750 | 3.92 | 1770 | 3.49 | 1.52 | 3.16 | 1650 | 3.3 | – | – | 1660 | 3.28 |
| CC(C)(C)c1nc(-c2cccc(NS(=O)(=O)c3c(F)cccc3F)c2F)c(-c2ccnc(N)n2)s1 | 51000 | > 100 | – | – | 17.7 | > 100 | 35600 | > 100 | 27300 | > 100 | 55600 | > 100 |
| Cc1nc(Sc2nc3ccc([N+](=O)[O-])cc3s2)sc1C | 1700 | 10.9 | 1600 | 4.53 | 1.74 | 6.04 | 1350 | 3.28 | 705 | 10.1 | 13800 | 26.7 |
| Cc1c(C)c2c(c(C)c1OCC(=O)O)CC[C@@](C)(CCC[C@@H](C)CCC[C@@H](C)CCCC(C)C)O2 | 87800 | 196 | 64400 | 142 | 66.7 | 176 | 77300 | 154 | 74600 | 199 | 60100 | 146 |
| Cn1cc(C2=C(c3ccccc3C(F)(F)F)C(=O)NC2=O)c2ccccc21 | 11400 | > 25 | 8110 | > 24 | 9.73 | > 25 | 7800 | 24.8 | 7470 | > 25 | 4330 | > 17.2 |
| COc1ccc(-c2nc(N)c(C#N)c3c2CCOc2c-3ccc3ccccc23)cc1 | 11100 | 39.8 | 36800 | > 100 | 21 | 76.5 | – | – | 20200 | > 100 | – | – |

Source: PubChem BioAssay (NCI)
